According to US11634447B2 (priority 2012, dated 2023):

What follows are compounds tested against bacterial strain LF82 binding to the glycoprotein BSA-(Mannose)3 (assay: Bacterial Binding Assay (BBA)). Conditions: LF82/Luciferase strain binding to BSA-(Man)3 coated plates, luminescence; read-out: Bacterial Binding Assay IC50.
Format: cell-based, Escherichia coli
Procedure, shortened: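 Inhibition of LF82/luciferase E. coli adhesion is read as luminescence after washing off unbound cells. Compound and bacteria (10^7 per well) are co-incubated 40-75 min at room temperature on wells coated with 0.5-2 μg/mL BSA-(Man)3, with BSA-only wells as background; IC50 values derived.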

Row | Compound | IC50 [nM]
1 | OC[C@H]1O[C@H](C#Cc2ccc3c(c2)C2(CC(O)C(O)CO2)c2cc(C#C[C@H]4O[C@H](CO)[C@@H](O)[C@H](O)[C@@H]4O)ccc2-3)[C@@H](O)[C@@H](O)[C@@H]1O (stereo partly shown) [Compound 197] | 0.83

Same assay, conditions: read-out: Bacterial Binding Assay IC50, LF82/Luciferase strain binding to BSA-(Man)3 coated plates, luminescence

Row | Compound | IC50 [nM]
2 | O=C1c2cc(C#C[C@H]3O[C@H](CO)[C@@H](O)[C@H](O)[C@@H]3O)ccc2-c2ccc(C#C[C@H]3O[C@H](CO)[C@@H](O)[C@H](O)[C@@H]3O)cc21 [Compound 119, 2,7-bis[2-[(2R,3S,4R,5S,6R)-3,4,5-trihydroxy-6-(hydroxymethyl)tetrahydropyran-2-yl]ethynyl]fluoren-9-one] | 14
3 | N#CC1(C(=O)c2c(C#C[C@H]3O[C@H](CO)[C@@H](O)[C@H](O)[C@@H]3O)ccc3c2C2(CCNCC2)c2cc(C#C[C@H]4O[C@H](CO)[C@@H](O)[C@H](O)[C@@H]4O)ccc2-3)CC1 [Compound 230, 1-[2,7-bis[2-[(2R,3S,4R,5S,6R)-3,4,5-trihydroxy-6-(hydroxymethyl)tetrahydropyran-2-yl]ethynyl]spiro[fluorene-9,4piperidine]-1carbonyl]cyclopropanecarbonitrile] | 0.16
4 | Cc1cc(C2CC2c2ccc([C@H]3O[C@H](CO)[C@@H](O)[C@H](O)[C@@H]3O)c(C)c2)ccc1[C@H]1O[C@H](CO)[C@@H](O)[C@H](O)[C@@H]1O (stereo partly drawn) [Compound 160, (2R,3S,4R,5S,6R)-2-(hydroxymethyl)-6-[2-methyl-4-[2-[3-methyl-4-[(2R,3S,4R,5S,6R)-3,4,5-trihydroxy-6-(hydroxymethyl)tetrahydropyran-2-yl]phenyl]cyclopropyl]phenyl]tetrahydropyran-3,4,5-triol] | 17
5 | OC[C@H]1O[C@H](C#Cc2cccc3cccc(C#C[C@H]4O[C@H](CO)[C@@H](O)[C@H](O)[C@@H]4O)c23)[C@@H](O)[C@@H](O)[C@@H]1O [Compound 137, (2R,3S,4R,5S,6R)-2-(hydroxymethyl)-6-[2-[8-[2-[(2R,3S,4R,5S,6R)-3,4,5-trihydroxy-6-(hydroxymethyl)tetrahydropyran-2-yl]ethynyl]-1-naphthyl]ethynyl]tetrahydropyran-3,4,5-triol] | 700
6 | OC[C@H]1O[C@H](C#Cc2ccc(C#C[C@H]3O[C@H](CO)[C@@H](O)[C@H](O)[C@@H]3O)c3nsnc23)[C@@H](O)[C@@H](O)[C@@H]1O [Compound 131, (2R,3S,4R,5S,6R)-2-(hydroxymethyl)-6-[2-[4-[2-[(2R,3S,4R,5S,6R)-3,4,5-trihydroxy-6-(hydroxymethyl)tetrahydropyran-2-yl]ethynyl]-2,1,3-benzothiadiazol-7-yl]ethynyl]tetrahydropyran-3,4,5-triol] | 128
7 | COCc1cc(C#C[C@H]2O[C@H](CO)[C@@H](O)[C@H](O)[C@@H]2O)c(COC)cc1C#C[C@H]1O[C@H](CO)[C@@H](O)[C@H](O)[C@@H]1O [Compound 89, (2R,3S,4R,5S,6R)-2-[2-[2,5-bis(methoxymethyl)-4-[2-[(2R,3S,4R,5S,6R)-3,4,5-trihydroxy-6-(hydroxymethyl)tetrahydropyran-2-yl]ethynyl]phenyl]ethynyl]-6-(hydroxymethyl)tetrahydropyran-3,4,5-triol] | 82
8 | O=C(c1cnccn1)c1c(C#C[C@H]2O[C@H](CO)[C@@H](O)[C@H](O)[C@@H]2O)ccc2c1C1(CCNCC1)c1cc(C#C[C@H]3O[C@H](CO)[C@@H](O)[C@H](O)[C@@H]3O)ccc1-2 [Compound 236, [2,7-bis[2-[(2R,3S,4R,5S,6R)-3,4,5-trihydroxy-6-(hydroxymethyl)tetrahydropyran-2-yl]ethynyl]spiro[fluorene-9,4piperidine]-1yl]-pyrazin-2-yl-methanone] | 0.5
9 | Cc1cc(-c2ccc(-c3ccc([C@H]4O[C@H](CO)[C@@H](O)[C@H](O)[C@@H]4O)c(C)c3)c(C)n2)ccc1[C@H]1O[C@H](CO)[C@@H](O)[C@H](O)[C@@H]1O [Compound 155, (2R,3S,4R,5S,6R)-2-(hydroxymethyl)-6-[2-methyl-4-[2-methyl-6-[3-methyl-4-[(2R,3S,4R,5S,6R)-3,4,5-trihydroxy-6-(hydroxymethyl)tetrahydropyran-2-yl]phenyl]-3-pyridyl]phenyl]tetrahydropyran-3,4,5-triol] | 22
10 | OC[C@H]1O[C@H](C#Cc2ccc3c(c2)C(O)(C2CC2)c2cc(C#C[C@H]4O[C@H](CO)[C@@H](O)[C@H](O)[C@@H]4O)ccc2-3)[C@@H](O)[C@@H](O)[C@@H]1O (stereo partly drawn) [Compound 114, (2R,3S,4R,5S,6R)-2-[2-[9-cyclopropyl-9-hydroxy-7-[2-[(2R,3S,4R,5S,6R)-3,4,5-trihydroxy-6-(hydroxymethyl)tetrahydropyran-2-yl]ethynyl]fluoren-2-yl]ethynyl]-6-(hydroxymethyl)tetrahydropyran-3,4,5-triol] | 1.2
11 | COc1c(C#C[C@H]2O[C@H](CO)[C@@H](O)[C@H](O)[C@@H]2O)ccc2c(OC)c(C#C[C@H]3O[C@H](CO)[C@@H](O)[C@H](O)[C@@H]3O)ccc12 [Compound 125, (2R,3S,4R,5S,6R)-2-[2-[1,5-dimethoxy-6-[2-[(2R,3S,4R,5S,6R)-3,4,5-trihydroxy-6-(hydroxymethyl)tetrahydropyran-2-yl]ethynyl]-2-naphthyl]ethynyl]-6-(hydroxymethyl)tetrahydropyran-3,4,5-triol] | 54
12 | COCCc1cc(C#C[C@H]2O[C@H](CO)[C@@H](O)[C@H](O)[C@@H]2O)ccc1C#C[C@H]1O[C@H](CO)[C@@H](O)[C@H](O)[C@@H]1O [Compound 74] | 8.1
13 | OC[C@H]1O[C@H](C#Cc2ccc3c(c2)C2(CCC(O)CC2)c2cc(C#C[C@H]4O[C@H](CO)[C@@H](O)[C@H](O)[C@@H]4O)ccc2-3)[C@@H](O)[C@@H](O)[C@@H]1O (stereo partly shown) [Compound 203] | 0.04
14 | CC(C)C(=O)N1CCC2(CC1)c1cc(C#C[C@H]3O[C@H](CO)[C@@H](O)[C@H](O)[C@@H]3O)ccc1-c1ccc(C#C[C@H]3O[C@H](CO)[C@@H](O)[C@H](O)[C@@H]3O)cc12 [Compound 224, 1-[2,7-bis[2-[(2R,3S,4R,5S,6R)-3,4,5-trihydroxy-6-(hydroxymethyl)tetrahydropyran-2-yl]ethynyl]spiro[fluorene-9,4piperidine]-1yl]-2-methyl-propan-l-one] | 0.08
15 | CN(C)C(=O)Cn1c2cc(C#C[C@H]3O[C@H](CO)[C@@H](O)[C@H](O)[C@@H]3O)ccc2c2ccc(C#C[C@H]3O[C@H](CO)[C@@H](O)[C@H](O)[C@@H]3O)cc21 [Compound 181, 2-[2,7-bis[2-[(2R,3S,4R,5S,6R)-3,4,5-trihydroxy-6-(hydroxymethyl)tetrahydropyran-2-yl]ethynyl]carbazol-9-yl]-N,N-dimethyl-acetamide] | 10
16 | CN(C)CCN(C)C1c2cc(C#C[C@H]3O[C@H](CO)[C@@H](O)[C@H](O)[C@@H]3O)ccc2-c2ccc(C#C[C@H]3O[C@H](CO)[C@@H](O)[C@H](O)[C@@H]3O)cc21 [Compound 213, (2R,3S,4R,5S,6R)-2-[2-[9-[2-(dimethylamino)ethyl-methyl-amino]-7-[2-[(2R,3S,4R,5S,6R)-3,4,5-trihydroxy-6-(hydroxymethyl)tetrahydropyran-2-yl]ethynyl]-9H-fluoren-2-yl]ethynyl]-6-(hydroxymethyl)tetrahydropyran-3,4,5-triol] | 3.7
